From publication PMC11077815, “Synthesis and antitumor activity of dolutegravir derivatives bearing 1,2,3-triazole moieties” (BMC Chemistry, 2024)

Experiments:
Assay type in all cases: cell-based, Human
PC-9 [1] = test: LIVE/DEAD staining, PC-9; settings: PC-9, 5, 10 or 20 µM, 24 h
Protocol: LIVE/DEAD staining experiments were carried out to evaluate the anti-proliferative activity of dolutegravir derivatives 9e and 9p against PC-9 and H460 cell lines. The tumor cells were treated with 5 µM, 10 µM or 20 µM of 9e and 9p for 24 h. The live and dead cells were photographed and counted.
PC-9 and H460 cells with a density of 5 × 10^3 cells/well were seeded on the 96-well plates. Then different concentrations (0, 5 µM, 10 µM, 20 µM) of 9e or 9p were treated for 24 h. Cells were then stained with the LIVE/DEAD Assay Kit, observed and photographed using the fluorescent microscope.

H460 [2] = test: Plate clone formation assay, H460; settings: H460, 0, 2, 4, 8, 16 and 32 µM, 48 h
Protocol: The plate clone formation experiments were also carried outto further confirm the effects of dolutegravir derivatives on cell proliferation. Compounds 9e and 9p with different concentrations (0, 2, 4, 8, 16 and 32 µM) were added to the cells.
PC-9 and H460 cells were seeded into 6-well plates at a density of 100–500 cells/well. After 10 days culture, cells were added with 9e or 9p at different concentrations (0, 2 µM, 4 µM, 8 µM, 16 µM, 32 µM) for 48 h. Then cells were fixed by 4% paraformaldehyde and stained by Giemsa dye. An optical microscope was used to photograph cells and count the clone numbers.

PC-9 [3] = test: Apoptosis assay (Annexin V-FITC/PI flow cytometry), PC-9; settings: 48 h
Protocol: (§1) Further, the effects of 9e and 9p on the apoptosis of tumor cells were studied to get details of the suppression of cell proliferation caused by these compounds. PC-9 and H460 cells treated with different concentrations of 9e or 9p were stained with Annexin V-FITC and PI, and the numbers of apoptosis cells were analyzed by the flow cytometry.
(§2) PC-9 and H460 cells were cultured in 6-well plates with a density of 3 × 10^5 cells/well. Different concentrations of 9e or 9p were added to cells for 48 h respectively. The concentrations were 0, 2, 4, and 8 µM for PC-9 cells and 0, 4, 8 and 16 µM for H460 cells. After treatment, Annexin V-FITC Apoptosis Detection Kit was used to determine the apoptotic ratio and FlowJo software v10 was used to analyze of the results.

H460 [4] = test: Apoptosis assay (Annexin V-FITC/PI flow cytometry), H460; settings: 48 h
Protocol: as §1, §2

LC3 = test: Western blot of LC3 in PC-9 cells; settings: PC-9, 0, 2, 4, 8 µM, 48 h
From the text: (§3) To determine the role of compounds 9e and 9p on regulating the development of cell proliferation, expressions of key proteins which were involved in cell growth progresses such as autophagy, apoptosis, cell cycle and DNA damage were examined. Ubiquitin like molecule light chain 3 (LC3) is a key marker of autophagy. […] Caspase3, which is one of the key proteins in regulating apoptosis, however, was not changed in tumor cells after treated with 9e or 9p. Cell cycle regulation proteins such as CyclinD, CyclinE or β-catenin were also not affected when PC-9 was treated with 9e or 9p. Further, H2AX variant histone (γ-H2AX), which was responsible for DNA damage, was also not affected when PC-9 were treated with 9e or 9p.
(§4) Protein expression levels were measured by western blot. PC-9 cells were cultured in 12-well plates and different concentrations (0, 2, 4, 8µM) of 9e and 9p were added for 48 h. Proteins were extracted from whole cells using radioimmunoprecipitation assay (RIPA). Buffer containing protease/phosphatase inhibitor cocktail (CST). Sodium dodecyl sulfate (10-15%) polyacrylamide gel electrophoresis and nitrocellulose membranes (Millipore) were used to separate and collect proteins. Antibodies used include, LC3 (3868s, CST), Caspase3 (9662, CST), cyclin D (2922s, CST), cyclin E (20808s, CST), γ-H2AX (9718s, CST), and β-actin (4967s, CST).

Caspase3 = test: Western blot of Caspase3 in PC-9 cells; settings: PC-9, 0, 2, 4, 8 µM, 48 h
From the text: as §3, §4

Question: Which results are given for `COc1c2n(cc(C(=O)Nc3cccc(-c4cn(-c5cccc([N+](=O)[O-])c5C)nn4)c3)c1=O)C[C@@H]1OCC[C@@H](C)N1C2=O` [Compound 9e]?
Answer: number of live cells (PC-9 [1]): decreased significantly in a dose dependent manner; ratio of dead/live cells (PC-9 [1]): increased significantly with the increase of concentration; plate clone formation (cell proliferation) (H460 [2]): anti-proliferative activity against cell lines PC9 and H460 in a dose-dependent manner; cell apoptosis (PC-9 [3]; PC-9, 2 µM or 4 µM): little influence; cell apoptosis (PC-9 [3]; PC-9, 8 µM): significant effects on cell apoptosis; cell apoptosis (H460 [4]; H460, 8 µM and 16 µM): significant increased apoptosis; expression of LC3 (LC3): significantly increased; Caspase3 expression (Caspase3): not changed

Question: Which results are given for `COc1c2n(cc(C(=O)Nc3cccc(-c4cn(-c5cccc(C(F)(F)F)c5)nn4)c3)c1=O)C[C@@H]1OCC[C@@H](C)N1C2=O` [Compound 9p]?
Answer: number of live cells (PC-9 [1]): decreased with the increase of concentration; ratio of dead/live cells (PC-9 [1]): increased compared with untreated group but not completely in a dose dependent manner; plate clone formation (cell proliferation) (H460 [2]): anti-proliferative activity against cell lines PC9 and H460 in a dose-dependent manner; cell apoptosis (PC-9 [3]; PC-9, 2 µM or 4 µM): little influence; cell apoptosis (PC-9 [3]; PC-9, 8 µM): significant effects on cell apoptosis; cell apoptosis (H460 [4]; H460, 4 µM, 8 µM and 16 µM): significantly increased apoptosis; expression of LC3 (LC3): significantly increased; Caspase3 expression (Caspase3): not changed
